Assays:
S. typhimurium TA97a = test: Dose range finding colony forming assay, strain TA97a with metabolic activation; type: cell-based
Description: A series of dose range finding assays were performed with five bacterial strains, S. typhimurium TA97a, TA98, TA100, TA1535, and E. coli WP2 uvrA pKM101, with and without metabolic activation at three plates per dose. The following doses, along with positive and negative controls, were tested: 5000, 2500, 1250, 500, 250, 125, 50, 20, 10, 5, 2, 1, and 0.2 μg/plate. The plates were evaluated for toxicity (a decrease in plate counts with increasing dose and/or a visible thinning of the background lawn) and for precipitation of the test article. Metabolic activation was included in some samples by adding phenobarbital/benzoflavone-induced rat liver S9 fractions with cofactors (S9 mix). Prior to use, freshly thawed aliquots of rat liver S9 were mixed with a sterile cofactor mix. The S9 mix contains a 10% liver S9 concentration and was refrigerated or stored on ice until used. When testing with metabolic activation, the S9 mix was used in the assay tube in place of phosphate buffer.
Dosing formulations were prepared to deliver all doses in a constant volume of 0.1 mL. The highest dose was prepared from test article weighed to the nearest 0.1 mg and the remaining formulations were prepared as serial dilutions from the high dose stock formulation. Using a permanent marking pen or computer printed labels, assay plates were labeled with the project and study numbers and the date. Assay plates and tubes were labeled with a unique identifier, which was used to match the assay tubes with the properly identified minimal glucose agar plate.
The pre-incubation method was used to perform the assay. The assay mix consisted of 0.1 mL of the test article formulation or control article, 0.5 mL S9 mix or phosphate buffer, and 0.1 mL of bacterial culture. Assay tubes were incubated at 37±1° C. with gentle agitation for 20±1 minutes, then 2.0-2.5 mL top agar was added to the assay mix and the top agar/assay mix poured onto appropriately labeled minimal glucose agar plates. Once the top agar hardened, the plates were inverted and incubated at 37±1° C. for 48±2 hours. Plates were counted with the Sorcerer (v. 2.2)/Ames Study Manager (v. 1.2.4) system from Perceptive Instruments (Suffolk, UK). With this system, plate counts are automatically transferred from the plate imager (Sorcerer) to a Study Manager spreadsheet, and the data are stored in a secure manner on an Oracle database. Some plates were hand counted, e.g., if sample precipitate interferes with automatic counting or toxicity results in the formation of microcolonies, in which case, counts for these plates were entered into the spreadsheet manually. Plates were scored also with the extent of colonization by a post fix code.

MRSA USA 400 = test: Bacterial cell death, DAPI/propidium iodide staining; type: cell-based, Staphylococcus aureus; settings: 24 h treatment; 0.002 mM to 0.0625 mM; FIG. 13
Description: (§1) In order to confirm that treatment with BM3103 induced MRSA USA 400 bacterial cell death, both untreated cells and cells treated with BM3103 were stained with a combination of DAPI (nuclear stain) and Propidium iodide (PI, Live dead stain). In a healthy cell, PI is not able to cross the cell membrane and produces no fluorescent signal. If the cell is dead or has a compromised cell membrane it will bind DNA and fluoresces between 535 nm excitation and 617 nm emission. MRSA USA 400 were plated in a well plate at 10^8 CFU/mL in combination with BM3103 treatment or no treatment. Plates were placed at 37° C. for 24 h. Bacteria cells were co-stained with DAPI and PI at 50 μg/mL and 500 μg/mL, respectively, for 15 min at room temperature. Wells were washed with warmed phosphate buffered saline (PBS) and maintained in PBS throughout the imaging acquisition process. Images were captured using the same exposure limits for each filter. […] Concentrations above 0.0625 mM gave a similar result.

MRSA USA 400 biofilms = test: Cell death in an existing biofilm, DAPI/propidium iodide staining; type: cell-based, Staphylococcus aureus; settings: 24 h treatment; 0.008 mM to 0.125 mM; FIG. 15
Description: For the treatment of MRSA USA 400 biofilms, the same 96 well plate assay procedure was used as described in the biofilm inhibition section above. However, the MRSA USA 400 inoculum (10^8 CFU/mL) grew overnight at 37° C. in the absence of BM3103 and without shaking. After 24 h of biofilm formation, BM3103 was serially diluted across a 96 well plate from of 1 mM to 0.002 mM. The plate was incubated again overnight at 37° C. without shaking.
as §1, with “death in the existing biofilm,” for “death,”, “stain) as described in Example 15.” for “stain). In a healthy cell, PI is not able to cross the cell membrane and produces no fluorescent signal. If the cell is dead or has a compromised cell membrane it will bind DNA and fluoresces between 535 nm excitation and 617 nm emission.”, “0.125” for “0.0625”

## COc1ccc(C#Cc2ccc(O)cc2)cc1 [BM3103, 4-hydroxy-4′-methoxytolan]
S. typhimurium TA97a; 0.2 μg/plate
  Colony forming units/plate: 89.0 colony forming units/plate
  Individual colony counts: 89
S. typhimurium TA97a; 1 μg/plate
  Colony forming units/plate: 122.0 colony forming units/plate
  Individual colony counts: 122
S. typhimurium TA97a; 2 μg/plate
  Colony forming units/plate: 78.0 colony forming units/plate
  Individual colony counts: 78
S. typhimurium TA97a; 5 μg/plate
  Colony forming units/plate: 78.0 colony forming units/plate
  Individual colony counts: 78
S. typhimurium TA97a; 10 μg/plate
  Colony forming units/plate: 77.0 colony forming units/plate
  Individual colony counts: 77.0
S. typhimurium TA97a; 20 μg/plate
  Colony forming units/plate: 0.0 colony forming units/plate
  Individual colony counts: 0
S. typhimurium TA97a; 50 μg/plate
  Colony forming units/plate: 0.0 colony forming units/plate
  Individual colony counts: 0
S. typhimurium TA97a; 125 μg/plate
  Colony forming units/plate: 0.0 colony forming units/plate
  Individual colony counts: 0
S. typhimurium TA97a; 250 μg/plate
  Colony forming units/plate: 0.0 colony forming units/plate
  Individual colony counts: 0
S. typhimurium TA97a; 500 μg/plate
  Colony forming units/plate: 0.0 colony forming units/plate
  Individual colony counts: 0
S. typhimurium TA97a; 1250 μg/plate
  Colony forming units/plate: 0.0 colony forming units/plate
  Individual colony counts: 0
  Plate postfix code (individual colony counts): A P
S. typhimurium TA97a; 2500 μg/plate
  Colony forming units/plate: 0.0 colony forming units/plate
  Individual colony counts: 0
S. typhimurium TA97a; 5000 μg/plate
  Colony forming units/plate: 0.0 colony forming units/plate
  Individual colony counts: 0
MRSA USA 400
  PI staining (cell death): dose dependent increase in PI staining
MRSA USA 400 biofilms
  PI staining (cell death) in existing biofilm: dose dependent increase in PI staining

From patent US12678412B2, “Substituted tolans for the modulation of microbial colonization” (BioMendics, LLC, priority 2017, dated 2026)
